Columns and labels:
Format in all cases: in vivo
Setaria viridis [1] = assay: Pre-emergence herbicidal action against SETVI; conditions: dosage 320 g/ha
Source text: (§1) Pre-Emergence Herbicidal Action Against Harmful Plants
(§2) Seeds of monocotyledonous and dicotyledonous weed plants and crop plants are laid out in wood-fiber pots in sandy loam and covered with soil. The compounds of the invention, formulated in the form of wettable powders (WP) or as emulsion concentrates (EC), are then applied to the surface of the covering soil in the form of an aqueous suspension or emulsion at a water application rate equating to 600 to 800 I/ha, with addition of 0.2% wetting agent. After the treatment, the pots are placed in a greenhouse and kept under good growth conditions for the trial plants. The damage to the test plants is scored visually after a test period of 3 weeks by comparison with untreated controls (herbicidal activity in percent (%): 100% activity=the plants have died, 0% activity=like control plants). For example, compounds no. 1-001, 1-002, 1-003, 1-004, 1-011, 1-012, 1-021, 1-022, 1-031, 1-032, 1-041, 1-042 and 1-044 at an application rate of 320 g/ha each have at least 80% efficacy against Echinocloa crusgalli, Abutilon theophrasti, Amaranthus retroflexus and Matricaria inodora.

Stellaria media [2] = assay: Pre-emergence herbicidal action against STEME; conditions: dosage 320 g/ha
Source text: as §1, §2

Avena fatua [3] = assay: Pre-emergence herbicidal action against AVEFA; conditions: dosage 320 g/ha
Source text: as §1, §2

Pharbitis purpureum = assay: Pre-emergence herbicidal action against PHBPU; conditions: dosage 320 g/ha
Source text: as §1, §2

Polygonum convolvulus [4] = assay: Pre-emergence herbicidal action against POLCO; conditions: dosage 320 g/ha
Source text: as §1, §2

Echinochloa crus galli = assay: Post-emergence herbicidal action against ECHCG; conditions: dosage 80 g/ha
Protocol: (§3) Post-Emergence Herbicidal Action Against Harmful Plants Seeds of monocotyledonous and dicotyledonous weed and crop plants are laid out in sandy loam in wood-fiber pots, covered with soil and cultivated in a greenhouse under good growth conditions. 2 to 3 weeks after sowing, the test plants are treated at the one-leaf stage. The compounds of the invention, formulated in the form of wettable powders (WP) or as emulsion concentrates (EC), are then sprayed onto the green parts of the plants in the form of an aqueous suspension or emulsion at a water application rate equating to 600 to 800 I/ha, with addition of 0.2% wetting agent. After the test plants have been left to stand in the greenhouse under optimal growth conditions for about 3 weeks, the action of the preparations is assessed visually in comparison to untreated controls (herbicidal action in percent (%): 100% activity=the plants have died, 0% activity=like control plants).

Abutilon theophrasti = assay: Post-emergence herbicidal action against ABUTH; conditions: dosage 80 g/ha
Protocol: as §3

Setaria viridis [5] = assay: Post-emergence herbicidal action against SETVI
Protocol: as §3

Alopecurus myosuroides = assay: Post-emergence herbicidal action against ALOMY
Protocol: as §3

Avena fatua [6] = assay: Post-emergence herbicidal action against AVEFA
Protocol: as §3

Stellaria media [7] = assay: Post-emergence herbicidal action against STEME; conditions: dosage 5 g/ha
Protocol: as §3

Polygonum convolvulus [8] = assay: Post-emergence herbicidal action against POLCO
Protocol: as §3

CCOSc1c(C)ccc(C(=O)Nc2nnnn2C)c1[N+](=O)[O-] [4-799]
Activity against SETVI (Setaria viridis [1]): 0% | Activity against STEME (Stellaria media [2]): 70%

COc1c(C(=O)Nc2nnnn2C)ccc(C)c1S(C)(=O)=O [4-811]
Activity against AVEFA (Avena fatua [3]): 60% | Activity against PHBPU (Pharbitis purpureum): 70%

CCOSc1c(CC)ccc(C(=O)Nc2nnnn2C)c1CC [drawing 36]
Activity against PHBPU (Pharbitis purpureum): 100% | Activity against POLCO (Polygonum convolvulus [4]): 100%

CCc1c(C(=O)Nc2nnnn2C)ccc(Cl)c1S(=O)(=O)CC [drawing 37, reference compound]
Activity against PHBPU (Pharbitis purpureum): 80% | Activity against POLCO (Polygonum convolvulus [4]): 60%

COSc1c(C)ccc(C(=O)Nc2nnnn2C)c1C [drawing 38]
Activity against ECHCG (Echinochloa crus galli): 100% | Activity against ABUTH (Abutilon theophrasti): 100% | Activity against SETVI (Setaria viridis [5]; dosage 80 g/ha): 100%

COSc1c(C)ccc(C(=O)Nc2nnnn2C)c1C [drawing 39, reference compound]
Activity against ECHCG (Echinochloa crus galli): 40% | Activity against ABUTH (Abutilon theophrasti): 80% | Activity against SETVI (Setaria viridis [5]; dosage 80 g/ha): 20%

CCOSc1c(C)ccc(C(=O)Nc2nnnn2C)c1[N+](=O)[O-] [drawing 43, reference compound]
Activity against ALOMY (Alopecurus myosuroides; dosage 80 g/ha): 10% | Activity against AVEFA (Avena fatua [6]; dosage 80 g/ha): 0%

CCS(=O)(=O)c1c(C)ccc(C(=O)Nc2nnnn2C)c1C [drawing 45]
Activity against ALOMY (Alopecurus myosuroides; dosage 80 g/ha): 90% | Activity against AVEFA (Avena fatua [6]; dosage 80 g/ha): 80%

CCS(=O)(=O)c1c(C)ccc(C(=O)Nc2nnnn2C)c1C [drawing 46, reference compound]
Activity against ALOMY (Alopecurus myosuroides; dosage 80 g/ha): 40% | Activity against AVEFA (Avena fatua [6]; dosage 80 g/ha): 20%

COSc1c(S(C)(=O)=O)ccc(C(=O)Nc2nnnn2C)c1C [drawing 50, reference compound]
Activity against STEME (Stellaria media [7]): 80% | Activity against SETVI (Setaria viridis [5]; dosage 5 g/ha): 40%

CCc1ccc(C(=O)Nc2nnnn2C)c(C)c1S(C)(=O)=O [drawing 51]
Activity against ALOMY (Alopecurus myosuroides; dosage 5 g/ha): 60% | Activity against AVEFA (Avena fatua [6]; dosage 5 g/ha): 80%

Cc1c(C(=O)Nc2nnnn2C)ccc(S(C)(=O)=O)c1S(C)(=O)=O [drawing 52, reference compound]
Activity against ALOMY (Alopecurus myosuroides; dosage 5 g/ha): 30% | Activity against AVEFA (Avena fatua [6]; dosage 5 g/ha): 10%

COSc1c(S(C)(=O)=O)ccc(C(=O)Nc2nnnn2C)c1C [drawing 55, reference compound]
Activity against ALOMY (Alopecurus myosuroides; dosage 5 g/ha): 0% | Activity against AVEFA (Avena fatua [6]; dosage 5 g/ha): 0%

Cc1c(C(=O)Nc2nnnn2C)ccc(S(C)(=O)=O)c1S(C)(=O)=O [drawing 60]
Activity against ALOMY (Alopecurus myosuroides; Table S, dosage 5 g/ha): 30% | Activity against AVEFA (Avena fatua [6]; Table S, dosage 5 g/ha): 10%

CCc1c(C(=O)Nc2nnnn2C)ccc(C)c1SOC [drawing 61]
Activity against ECHCG (Echinochloa crus galli; Table T): 90% | Activity against SETVI (Setaria viridis [5]; Table T, dosage 80 g/ha): 80%

COSc1c(C)ccc(C(=O)Nc2nnnn2C)c1C [drawing 62]
Activity against ECHCG (Echinochloa crus galli; Table T): 40% | Activity against SETVI (Setaria viridis [5]; Table T, dosage 80 g/ha): 20%

COSc1c(C)ccc(C(=O)Nc2nnnn2C)c1[N+](=O)[O-] [drawing 63]
Activity against ECHCG (Echinochloa crus galli; Table T): 20% | Activity against SETVI (Setaria viridis [5]; Table T, dosage 80 g/ha): 0%

Cc1ccc(C(=O)Nc2nnnn2C)c([N+](=O)[O-])c1S(C)(=O)=O [drawing 66]
Activity against ECHCG (Echinochloa crus galli; Table U): 0% | Activity against SETVI (Setaria viridis [5]; Table U, dosage 80 g/ha): 0%

CCc1c(C(=O)Nc2nnnn2C)ccc(C)c1SOC [drawing 67]
Activity against POLCO (Polygonum convolvulus [8]; Table V, dosage 5 g/ha): 60%

CCc1c(C(=O)Nc2nnnn2C)ccc(Br)c1SOC [drawing 69]
Activity against POLCO (Polygonum convolvulus [8]; Table V, dosage 5 g/ha): 20%

CCc1c(C(=O)Nc2nnnn2C)ccc(C)c1S(C)(=O)=O [drawing 70]
Activity against POLCO (Polygonum convolvulus [8]; Table W, dosage 20 g/ha): 70%

CCc1c(C(=O)Nc2nnnn2C)ccc(Cl)c1S(C)(=O)=O [drawing 71]
Activity against POLCO (Polygonum convolvulus [8]; Table W, dosage 20 g/ha): 50%

CCOSc1c(CC)ccc(C(=O)Nc2nnnn2C)c1CC [drawing 73]
Activity against POLCO (Polygonum convolvulus [8]; Table X, dosage 20 g/ha): 60%

CCc1c(C(=O)Nc2nnnn2C)ccc(Cl)c1S(=O)(=O)CC [drawing 76]
Activity against POLCO (Polygonum convolvulus [8]; Table Y, dosage 20 g/ha): 70%

CCOSc1c(OC)ccc(C(=O)Nc2nnnn2C)c1C [reference compound]
Activity against ALOMY (Alopecurus myosuroides; dosage 80 g/ha): 40% | Activity against AVEFA (Avena fatua [6]; dosage 80 g/ha): 20%

CCS(=O)(=O)c1c(C)ccc(C(=O)Nc2nnnn2C)c1[N+](=O)[O-] [reference compound]
Activity against ALOMY (Alopecurus myosuroides; dosage 80 g/ha): 10% | Activity against AVEFA (Avena fatua [6]; dosage 80 g/ha): 0%

COSc1c(C(F)(F)F)ccc(C(=O)Nc2nnnn2C)c1C [reference compound]
Activity against STEME (Stellaria media [7]): 80% | Activity against SETVI (Setaria viridis [5]; dosage 5 g/ha): 80%

Cc1c(C(=O)Nc2nnnn2C)ccc(Cl)c1S(C)(=O)=O [reference compound]
Activity against ALOMY (Alopecurus myosuroides; dosage 5 g/ha): 20% | Activity against AVEFA (Avena fatua [6]; dosage 5 g/ha): 20%

COSc1cccc(C(=O)Nc2nnnn2C)c1C [reference compound]
Activity against ALOMY (Alopecurus myosuroides; dosage 5 g/ha): 10% | Activity against AVEFA (Avena fatua [6]; dosage 5 g/ha): 20%

From patent US9815802B2, “Herbicidally active N-(1-methyltetrazol-5-yl)benzoic acid amides” (BAYER CROPSCIENCE AKTIENGESELLSCHAFT, priority 2014, dated 2017)
